The supplement of paper PMC12463676, “Small-molecule dissolution of stress granules by redox modulation benefits ALS models” (Nature Chemical Biology, 2025)

How the values were obtained:
potassium arsenate = compound: O=[As]([O-])(O)O.[K+] [potassium arsenate]; test: thermal stability z-score vs DMSO; higher = more thermally stabilized by treatment; conditions: HeLa; arsenate concentration 1 mM
Description: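 Cellular thermal proteome profiling in HeLa cells treated with 1 mM arsenate for 1 h (DMSO pretreatment), heated to ten temperatures (37-66.3 °C). Soluble protein was quantified by TMT mass spectrometry relative to DMSO controls; the thermal stability score was transformed to a z-score; mean of n = 3 experiments.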

lipoamide = compound: NC(=O)CCCCC1CCSS1 [lipoamide]; test: as above; conditions: HeLa, lipoamide concentration 100 µM
Description: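 Cellular thermal proteome profiling in HeLa cells. Cells were treated with 100 µM lipoamide for 1 h, with or without 1 mM arsenate for a further 1 h, then heated to ten temperatures (37-66.3 °C), and soluble protein was quantified by TMT mass spectrometry relative to 0.1% DMSO controls. The thermal stability score (sum of log2 fold changes minus the abundance score) was transformed to a z-score; mean of n = 3 experiments.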

[1] = arsenate co-treatment: 1 mM arsenate 1 h
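Further: each temperature applied for 3 min, abundance score taken as mean log2 fold change at the two lowest temperatures, z-score obtained by mean subtraction and division by SD.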

UniProt Q3SY69, sequence (Q3SY69 whole entry): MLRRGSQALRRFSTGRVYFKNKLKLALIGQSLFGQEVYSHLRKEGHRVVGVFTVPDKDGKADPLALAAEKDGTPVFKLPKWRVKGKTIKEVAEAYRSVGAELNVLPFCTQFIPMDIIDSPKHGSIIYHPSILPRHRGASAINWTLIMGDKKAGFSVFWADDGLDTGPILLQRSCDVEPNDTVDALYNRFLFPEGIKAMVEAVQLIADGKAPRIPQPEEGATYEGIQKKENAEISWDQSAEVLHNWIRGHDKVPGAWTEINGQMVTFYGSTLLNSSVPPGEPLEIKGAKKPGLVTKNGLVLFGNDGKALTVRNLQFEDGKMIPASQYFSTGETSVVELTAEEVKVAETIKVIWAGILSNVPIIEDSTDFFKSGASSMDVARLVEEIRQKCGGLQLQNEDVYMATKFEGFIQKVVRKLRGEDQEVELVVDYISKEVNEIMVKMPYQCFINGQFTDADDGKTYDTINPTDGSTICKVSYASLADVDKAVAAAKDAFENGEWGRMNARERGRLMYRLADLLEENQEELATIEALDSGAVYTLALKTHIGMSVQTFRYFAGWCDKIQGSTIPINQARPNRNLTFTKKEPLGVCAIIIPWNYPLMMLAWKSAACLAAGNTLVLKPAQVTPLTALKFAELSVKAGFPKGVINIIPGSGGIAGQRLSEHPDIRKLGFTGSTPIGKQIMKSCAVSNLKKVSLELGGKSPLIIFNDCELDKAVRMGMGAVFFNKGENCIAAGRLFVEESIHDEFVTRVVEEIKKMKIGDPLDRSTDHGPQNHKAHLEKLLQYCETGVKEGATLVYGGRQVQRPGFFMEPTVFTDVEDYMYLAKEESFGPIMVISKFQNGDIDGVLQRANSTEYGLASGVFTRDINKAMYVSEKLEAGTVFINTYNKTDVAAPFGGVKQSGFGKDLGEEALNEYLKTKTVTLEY
UniProt Q13686, sequence (Q13686 whole entry): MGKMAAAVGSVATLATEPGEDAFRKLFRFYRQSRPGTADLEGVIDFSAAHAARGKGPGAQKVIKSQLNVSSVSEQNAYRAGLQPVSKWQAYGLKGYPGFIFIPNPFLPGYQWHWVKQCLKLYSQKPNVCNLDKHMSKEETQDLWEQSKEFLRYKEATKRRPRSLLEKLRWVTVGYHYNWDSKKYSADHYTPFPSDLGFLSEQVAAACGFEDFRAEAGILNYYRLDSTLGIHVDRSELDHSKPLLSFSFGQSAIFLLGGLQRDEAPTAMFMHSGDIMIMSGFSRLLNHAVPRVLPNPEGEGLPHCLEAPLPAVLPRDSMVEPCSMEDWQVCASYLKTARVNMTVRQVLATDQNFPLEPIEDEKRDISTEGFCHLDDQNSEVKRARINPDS
UniProt O43488, sequence (O43488 whole entry): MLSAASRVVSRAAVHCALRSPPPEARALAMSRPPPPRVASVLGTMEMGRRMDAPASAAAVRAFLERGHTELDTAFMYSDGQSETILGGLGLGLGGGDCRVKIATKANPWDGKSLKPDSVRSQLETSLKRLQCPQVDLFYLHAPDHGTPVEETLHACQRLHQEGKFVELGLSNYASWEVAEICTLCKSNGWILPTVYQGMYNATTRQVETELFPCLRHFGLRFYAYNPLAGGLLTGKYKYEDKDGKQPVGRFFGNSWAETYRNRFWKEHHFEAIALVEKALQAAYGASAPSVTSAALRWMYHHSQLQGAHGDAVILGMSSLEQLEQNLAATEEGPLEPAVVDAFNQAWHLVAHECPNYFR
UniProt P13196, sequence (P13196 whole entry): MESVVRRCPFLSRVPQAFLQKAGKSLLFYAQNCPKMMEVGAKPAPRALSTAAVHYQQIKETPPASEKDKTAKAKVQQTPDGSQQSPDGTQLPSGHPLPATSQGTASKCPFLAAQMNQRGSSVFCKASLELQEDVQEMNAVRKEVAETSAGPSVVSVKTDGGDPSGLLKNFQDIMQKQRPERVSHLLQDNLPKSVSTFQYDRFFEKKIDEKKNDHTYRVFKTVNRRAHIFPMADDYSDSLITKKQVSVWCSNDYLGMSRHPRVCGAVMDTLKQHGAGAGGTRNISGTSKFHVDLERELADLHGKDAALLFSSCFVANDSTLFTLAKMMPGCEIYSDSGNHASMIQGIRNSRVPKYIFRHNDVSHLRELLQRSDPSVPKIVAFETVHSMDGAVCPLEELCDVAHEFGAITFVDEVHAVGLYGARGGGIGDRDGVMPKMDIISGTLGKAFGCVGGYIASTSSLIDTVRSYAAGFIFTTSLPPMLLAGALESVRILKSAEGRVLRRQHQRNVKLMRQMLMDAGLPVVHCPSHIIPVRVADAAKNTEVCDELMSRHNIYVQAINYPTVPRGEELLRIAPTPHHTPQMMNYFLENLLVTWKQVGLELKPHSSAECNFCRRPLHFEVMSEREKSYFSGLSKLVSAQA
UniProt Q92685, sequence (Q92685 whole entry): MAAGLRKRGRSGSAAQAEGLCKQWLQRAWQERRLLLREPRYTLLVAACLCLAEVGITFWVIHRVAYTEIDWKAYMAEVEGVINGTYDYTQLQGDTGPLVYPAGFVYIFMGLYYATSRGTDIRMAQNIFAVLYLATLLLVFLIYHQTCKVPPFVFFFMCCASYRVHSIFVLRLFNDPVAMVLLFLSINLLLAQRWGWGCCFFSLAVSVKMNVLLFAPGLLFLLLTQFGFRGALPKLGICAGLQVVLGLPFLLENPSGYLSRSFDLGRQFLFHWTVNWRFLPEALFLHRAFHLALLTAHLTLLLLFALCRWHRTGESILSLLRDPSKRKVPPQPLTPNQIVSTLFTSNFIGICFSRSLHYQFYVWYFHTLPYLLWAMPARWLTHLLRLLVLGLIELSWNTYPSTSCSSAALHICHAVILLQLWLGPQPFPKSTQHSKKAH
UniProt Q12904, sequence (Q12904 whole entry): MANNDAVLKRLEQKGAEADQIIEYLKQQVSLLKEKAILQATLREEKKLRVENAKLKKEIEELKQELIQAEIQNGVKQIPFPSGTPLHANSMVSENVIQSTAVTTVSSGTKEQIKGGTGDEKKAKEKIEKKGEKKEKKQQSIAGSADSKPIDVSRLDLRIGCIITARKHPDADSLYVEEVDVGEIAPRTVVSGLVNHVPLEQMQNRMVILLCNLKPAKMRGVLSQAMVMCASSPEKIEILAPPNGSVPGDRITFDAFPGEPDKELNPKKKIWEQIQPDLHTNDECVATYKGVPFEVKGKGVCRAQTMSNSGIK
UniProt Q9BVK2, sequence (Q9BVK2 whole entry): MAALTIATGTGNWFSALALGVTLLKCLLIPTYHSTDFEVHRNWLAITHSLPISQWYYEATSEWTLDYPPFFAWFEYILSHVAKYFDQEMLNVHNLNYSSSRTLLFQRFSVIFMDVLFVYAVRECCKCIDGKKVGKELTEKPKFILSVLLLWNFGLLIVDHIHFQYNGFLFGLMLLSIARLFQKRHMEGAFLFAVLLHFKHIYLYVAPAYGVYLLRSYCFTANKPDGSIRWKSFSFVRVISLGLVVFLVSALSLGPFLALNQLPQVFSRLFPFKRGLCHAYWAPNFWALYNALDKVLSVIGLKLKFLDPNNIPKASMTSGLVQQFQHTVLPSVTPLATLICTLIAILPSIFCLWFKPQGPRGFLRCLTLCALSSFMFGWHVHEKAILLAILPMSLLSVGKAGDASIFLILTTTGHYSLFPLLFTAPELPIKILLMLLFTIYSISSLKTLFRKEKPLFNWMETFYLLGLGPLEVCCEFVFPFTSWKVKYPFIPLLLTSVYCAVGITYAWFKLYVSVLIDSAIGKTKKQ
UniProt Q9BT22, sequence (Q9BT22 whole entry): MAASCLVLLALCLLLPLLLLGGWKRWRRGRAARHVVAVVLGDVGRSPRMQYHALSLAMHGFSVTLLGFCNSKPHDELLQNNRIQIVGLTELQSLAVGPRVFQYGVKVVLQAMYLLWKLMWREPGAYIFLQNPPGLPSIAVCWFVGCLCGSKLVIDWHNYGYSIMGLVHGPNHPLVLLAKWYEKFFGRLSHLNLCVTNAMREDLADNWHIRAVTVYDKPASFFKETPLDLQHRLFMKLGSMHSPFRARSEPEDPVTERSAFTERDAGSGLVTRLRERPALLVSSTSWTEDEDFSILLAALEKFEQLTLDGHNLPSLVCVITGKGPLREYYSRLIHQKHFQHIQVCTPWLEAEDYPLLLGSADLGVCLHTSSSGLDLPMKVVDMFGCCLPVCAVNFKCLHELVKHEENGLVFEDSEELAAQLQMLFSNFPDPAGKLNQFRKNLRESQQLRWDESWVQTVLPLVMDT
UniProt P54886, sequence (P54886 whole entry): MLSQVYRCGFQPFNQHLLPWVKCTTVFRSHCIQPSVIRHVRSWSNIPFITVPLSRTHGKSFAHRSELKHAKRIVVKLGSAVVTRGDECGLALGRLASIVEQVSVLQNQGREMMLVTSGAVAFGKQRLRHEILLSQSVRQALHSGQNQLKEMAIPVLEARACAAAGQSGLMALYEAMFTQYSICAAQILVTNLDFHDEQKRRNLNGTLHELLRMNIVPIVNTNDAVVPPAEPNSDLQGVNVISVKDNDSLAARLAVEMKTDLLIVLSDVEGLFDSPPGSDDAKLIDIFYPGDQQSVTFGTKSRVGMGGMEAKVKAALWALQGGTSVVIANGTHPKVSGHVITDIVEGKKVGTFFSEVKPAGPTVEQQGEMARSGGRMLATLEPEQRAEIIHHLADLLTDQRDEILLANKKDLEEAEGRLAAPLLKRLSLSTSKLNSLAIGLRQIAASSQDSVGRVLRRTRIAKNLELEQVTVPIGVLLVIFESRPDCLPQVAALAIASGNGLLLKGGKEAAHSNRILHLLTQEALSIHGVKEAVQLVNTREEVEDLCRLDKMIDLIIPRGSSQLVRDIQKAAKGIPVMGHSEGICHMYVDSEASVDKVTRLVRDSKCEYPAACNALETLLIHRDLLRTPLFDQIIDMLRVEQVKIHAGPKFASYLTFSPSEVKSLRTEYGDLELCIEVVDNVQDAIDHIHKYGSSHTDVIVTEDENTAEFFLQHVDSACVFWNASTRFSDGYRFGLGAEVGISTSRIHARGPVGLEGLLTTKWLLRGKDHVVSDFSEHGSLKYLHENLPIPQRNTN
UniProt Q9BQI0, sequence (Q9BQI0 whole entry): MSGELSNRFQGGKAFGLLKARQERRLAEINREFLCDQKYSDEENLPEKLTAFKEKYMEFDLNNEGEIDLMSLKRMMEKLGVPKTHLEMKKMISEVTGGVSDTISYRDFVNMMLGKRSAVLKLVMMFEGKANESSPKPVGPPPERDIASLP

Target	thermal stability z-score (potassium arsenate)	thermal stability z-score (lipoamide; [1])	thermal stability z-score (lipoamide; arsenate co-treatment: none)
AHCYL1 (UniProt O43865)	-6.61	0.156	-0.134
AHCYL2 (UniProt Q96HN2)	-1.74	0.295	0.547
AHNAK2 (UniProt Q8IVF2)	1.42	0.924	0.899
AHNAK (UniProt Q09666)	2.03	1.35	1.69
AHSA1 (UniProt O95433)	0.423	0.722	0.671
AIDA (UniProt Q96BJ3)	-0.0785	-0.00864	0.00569
AIF1L (UniProt Q9BQI0)	-0.374	-0.218	-0.305
AIFM1 (UniProt O95831)	0.186	-0.464	-0.558
AIFM2 (UniProt Q9BRQ8)	0.776	0.556	-0.298
AIM1	0.00488	-0.151	-0.209
AIMP1 (UniProt Q12904)	0.717	0.288	0.163
AIMP2 (UniProt Q13155)	0.702	-0.616	-0.263
AIP (UniProt O00170)	-2.08	-0.0398	-0.833
AJUBA (UniProt Q96IF1)	-0.562	-0.32	-0.207
AK1 (UniProt P00568)	-0.267	-0.242	0.28
AK2 (UniProt P54819)	-0.84	-0.717	-0.168
AK3 (UniProt Q9UIJ7)	-1.11	-0.869	-1
AK4 (UniProt P27144)	-0.724	0.119	0.256
AK6 (UniProt Q9Y3D8)	-2.09	-0.665	-0.877
AKAP1 (UniProt Q92667)	0.73	0.866	0.652
AKAP2	-0.839	1.28	0.638
AKAP8 (UniProt O43823)	-0.946	0.701	-0.426
AKAP8L (UniProt Q9ULX6)	-0.163	0.0418	-0.0231
AKAP9 (UniProt Q99996)	1.18	0.757	1.46

Target	thermal stability z-score (potassium arsenate)	thermal stability z-score (lipoamide; [1])	thermal stability z-score (lipoamide; arsenate co-treatment: none)
AKAP10 (UniProt O43572)	-0.229	-0.128	-0.105
AKAP11 (UniProt Q9UKA4)	-0.0869	0.0955	0.0515
AKAP13 (UniProt Q12802)	0.667	-0.125	-0.1
AKIRIN2 (UniProt Q53H80)	0.307	0.0163	-0.00376
AKR1A1 (UniProt P14550)	-0.0811	0.441	-0.302
AKR1B1 (UniProt P15121)	1.19	0.596	0.698
AKR7A2 (UniProt O43488)	0.581	0.2	-0.0291
AKT1 (UniProt P31749)	-1.01	-0.698	-0.638
AKT1S1 (UniProt Q96B36)	-0.504	-0.0956	-0.229
AKT2 (UniProt P31751)	-0.0952	0.466	-0.00865
ALAD (UniProt P13716)	0.112	0.313	0.885
ALAS1 (UniProt P13196)	-0.0697	0.0114	-0.0767
ALCAM (UniProt Q13740)	0.534	0.558	0.931
ALDH1A3 (UniProt P47895)	-0.284	0.622	0.25
ALDH1B1 (UniProt P30837)	-1.44	1.12	0.881
ALDH1L2 (UniProt Q3SY69)	0.559	-0.223	0.327
ALDH3A2 (UniProt P51648)	0.0815	1.63	1.32
ALDH3B1 (UniProt P43353)	1.26	-0.215	0.338
ALDH4A1 (UniProt P30038)	1.19	-0.59	-0.14
ALDH5A1 (UniProt P51649)	0.302	0.0808	-0.136
ALDH6A1 (UniProt Q02252)	4.94	-0.315	0.458
ALDH7A1 (UniProt P49419)	0.994	1.36	0.584
ALDH9A1 (UniProt P49189)	-1.15	-0.257	-0.212
ALDH16A1 (UniProt Q8IZ83)	-0.784	-0.127	-0.311

Target	thermal stability z-score (potassium arsenate)	thermal stability z-score (lipoamide; [1])	thermal stability z-score (lipoamide; arsenate co-treatment: none)
ALDH18A1 (UniProt P54886)	-1.34	-0.0576	0.0663
ALDOA (UniProt P04075)	-0.488	0.281	0.0525
ALDOC (UniProt P09972)	-0.67	-0.284	-0.526
ALG1 (UniProt Q9BT22)	0.115	-0.337	0.0286
ALG2 (UniProt Q9H553)	-0.992	-1.02	-1.3
ALG3 (UniProt Q92685)	0.141	-0.0793	-0.236
ALG5 (UniProt Q9Y673)	0.347	0.39	-0.1
ALG6 (UniProt Q9Y672)	-0.233	0.3	0.171
ALG8 (UniProt Q9BVK2)	0.491	0.425	-0.262
ALG10|ALG10B	-0.0103	0.489	-0.122
ALG11 (UniProt Q2TAA5)	0.806	0.266	-0.15
ALG13 (UniProt Q9NP73)	-0.739	0.336	0.571
ALG14 (UniProt Q96F25)	-0.257	-0.0836	-0.394
ALKBH1 (UniProt Q13686)	0.295	0.0966	0.171
ALKBH2 (UniProt Q6NS38)	1.45	0.407	0.149
ALKBH4 (UniProt Q9NXW9)	-0.163	0.0364	0.0782
ALKBH5 (UniProt Q6P6C2)	2.96	1.79	-0.205
ALKBH6 (UniProt Q3KRA9)	3.15	0.205	0.0821
ALYREF (UniProt Q86V81)	-0.0562	0.585	0.0941
AMACR (UniProt Q9UHK6)	0.504	0.683	-0.138
AMBRA1 (UniProt Q9C0C7)	0.446	0.0433	0.0956
AMD1 (UniProt P17707)	-0.105	0.96	0.512
AMDHD2 (UniProt Q9Y303)	1.3	0.0258	0.186
AMFR (UniProt Q9UKV5)	0.444	-0.269	-0.845
